Among the data in US9546164B2 (GENENTECH, INC., priority 2013, dated 2017) are IC50 values, retold here.

Structures can show the parent of a compound that is named as a salt.

The target in the first assay is hNav1.7 (Homo sapiens (Human), UniProt Q15858). As to the kind of experiment: Tritiated sulfonamide competitive binding to membranes from cells expressing hNav1.7 and the β1 subunit.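 Also: Filter-bound radioactivity counted by liquid scintillation, nonspecific binding defined with excess unlabelled ligand, IC50 fitted to percent inhibition of specific binding.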
Chain of hNav1.7 (Q15858 other isoform, or with tags, fused parts or gaps): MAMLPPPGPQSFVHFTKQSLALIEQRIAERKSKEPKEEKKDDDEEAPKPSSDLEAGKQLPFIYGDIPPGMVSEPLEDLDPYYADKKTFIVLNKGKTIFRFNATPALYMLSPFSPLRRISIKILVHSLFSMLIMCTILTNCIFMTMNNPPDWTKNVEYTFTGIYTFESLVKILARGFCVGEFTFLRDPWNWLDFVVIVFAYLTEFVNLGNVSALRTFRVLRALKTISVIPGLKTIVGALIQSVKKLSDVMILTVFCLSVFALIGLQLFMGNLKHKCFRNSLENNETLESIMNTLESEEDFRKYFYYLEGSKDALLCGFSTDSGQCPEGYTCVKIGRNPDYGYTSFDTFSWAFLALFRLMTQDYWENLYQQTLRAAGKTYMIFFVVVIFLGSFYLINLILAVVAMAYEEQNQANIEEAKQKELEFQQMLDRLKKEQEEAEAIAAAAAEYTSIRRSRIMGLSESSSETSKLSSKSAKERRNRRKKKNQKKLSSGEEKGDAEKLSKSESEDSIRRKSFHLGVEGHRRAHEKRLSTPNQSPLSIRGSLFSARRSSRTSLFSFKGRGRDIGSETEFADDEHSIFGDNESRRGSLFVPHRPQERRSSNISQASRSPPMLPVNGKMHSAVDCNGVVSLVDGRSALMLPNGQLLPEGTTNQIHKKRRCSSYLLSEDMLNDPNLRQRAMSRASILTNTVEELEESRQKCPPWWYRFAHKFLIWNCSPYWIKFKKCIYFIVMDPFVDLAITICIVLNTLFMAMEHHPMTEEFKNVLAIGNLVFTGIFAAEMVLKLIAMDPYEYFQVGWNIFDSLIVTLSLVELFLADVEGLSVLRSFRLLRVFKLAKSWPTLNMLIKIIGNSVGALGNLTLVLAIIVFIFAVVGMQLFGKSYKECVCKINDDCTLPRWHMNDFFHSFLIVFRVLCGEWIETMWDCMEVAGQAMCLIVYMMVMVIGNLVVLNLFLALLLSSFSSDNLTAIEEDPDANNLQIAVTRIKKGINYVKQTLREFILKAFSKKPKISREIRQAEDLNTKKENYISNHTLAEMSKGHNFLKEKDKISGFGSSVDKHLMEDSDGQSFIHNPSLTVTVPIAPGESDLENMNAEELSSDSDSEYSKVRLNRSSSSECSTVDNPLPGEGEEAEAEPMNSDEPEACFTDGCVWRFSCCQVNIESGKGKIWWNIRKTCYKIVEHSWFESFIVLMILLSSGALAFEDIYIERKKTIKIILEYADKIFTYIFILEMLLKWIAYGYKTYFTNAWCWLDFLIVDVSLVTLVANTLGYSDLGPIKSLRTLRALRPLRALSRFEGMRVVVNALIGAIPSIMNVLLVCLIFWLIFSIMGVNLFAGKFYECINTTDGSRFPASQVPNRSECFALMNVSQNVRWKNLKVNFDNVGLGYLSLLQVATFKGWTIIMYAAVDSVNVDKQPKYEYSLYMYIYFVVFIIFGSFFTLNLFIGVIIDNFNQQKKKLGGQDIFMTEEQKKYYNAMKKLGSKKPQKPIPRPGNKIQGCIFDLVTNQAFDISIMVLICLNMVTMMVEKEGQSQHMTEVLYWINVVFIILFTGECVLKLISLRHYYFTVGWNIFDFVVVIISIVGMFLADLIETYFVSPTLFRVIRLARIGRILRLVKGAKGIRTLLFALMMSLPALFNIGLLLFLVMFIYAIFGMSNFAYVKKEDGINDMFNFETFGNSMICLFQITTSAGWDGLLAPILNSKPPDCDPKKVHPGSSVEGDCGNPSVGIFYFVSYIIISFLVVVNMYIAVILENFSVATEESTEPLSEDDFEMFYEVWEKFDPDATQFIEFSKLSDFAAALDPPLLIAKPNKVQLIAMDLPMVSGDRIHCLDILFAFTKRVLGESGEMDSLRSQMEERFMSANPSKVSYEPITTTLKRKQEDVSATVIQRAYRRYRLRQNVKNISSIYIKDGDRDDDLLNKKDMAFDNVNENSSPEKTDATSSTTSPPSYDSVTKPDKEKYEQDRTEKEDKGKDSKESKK
Chain of hNav1.7 (Q07699 19-218 partner): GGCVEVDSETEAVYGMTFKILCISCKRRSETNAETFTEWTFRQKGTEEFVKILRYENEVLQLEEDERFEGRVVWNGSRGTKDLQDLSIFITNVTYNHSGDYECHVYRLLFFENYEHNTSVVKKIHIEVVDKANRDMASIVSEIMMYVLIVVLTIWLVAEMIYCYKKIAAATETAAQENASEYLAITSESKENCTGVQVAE
Details: not given
`CS(=O)(=O)NC(=O)c1cc(C2CC2)c(CN2CCC(Oc3ccc(Cl)c(C(F)(F)F)c3)CC2)cc1F` [Example 519, 4-((4-(4-chloro-3-(trifluoromethyl)phenoxy)piperidin-1-yl)methyl)-5-cyclopropyl-2-fluoro-N-(methylsulfonyl)benzamide, trifluoroacetic acid salt] registered an IC50 of 8.1 nM.
Take `C[C@@H]1CN(Cc2cc(F)c(C(=O)NS(C)(=O)=O)cc2C2CC2)CCN1[C@@H](C)c1cc(Cl)cc(Cl)c1` [Example 571, 5-cyclopropyl-4-(((R)-4-((S)-1-(3,5-dichlorophenyl)ethyl)-3-methylpiperazin-1-yl)methyl)-2-fluoro-N-(methylsulfonyl)benzamide]: the IC50 stood at 44.3 nM.
The same measure, in the same setting: in the case of `CS(=O)(=O)NC(=O)c1cc(C2CC2)c(CN2CC(Oc3cc(Cl)cc(Cl)c3)C2)cc1F` [Example 544, 5-cyclopropyl-4-((3-(3,5-dichlorophenoxy)azetidin-1-yl)methyl)-2-fluoro-N-(methylsulfonyl)benzamide, trifluoroacetic acid salt] it was 15.3 nM; in that of `O=C(NS(=O)(=O)C1CC1)c1cc(C2CC2)c(CN2C[C@@H]3C[C@H]2CN3S(=O)(=O)c2cc(Cl)cc(Cl)c2)cc1F` [Example 559, 5-cyclopropyl-N-(cyclopropylsulfonyl)-4-(((1S,4S)-5-((3,5-dichlorophenyl)sulfonyl)-2,5-diazabicyclo[2.2.1]heptan-2-yl)methyl)-2-fluorobenzamide, trifluoroacetic acid salt], 18.9 nM; in that of `O=C(NS(=O)(=O)C1CC1)c1cc(C2CC2)c(O[C@@H]2CCCN(Cc3ccc(Cl)c(Cl)c3)C2)cc1F` [Example 18, (R)-5-cyclopropyl-N-(cyclopropylsulfonyl)-4-((1-(3,4-dichlorobenzyl)-piperidin-3-yl)oxy)-2-fluorobenzamide], 2.6 nM.

Staying with this assay, now noted: read-out: Ligand Binding Assay; 100 pM [3H]compound, membranes with hNav1.7 and β1 subunit, 18 h, room temperature.
Take `Cc1ccc(CN2CCC[C@@H](Oc3cc(F)c(C(=O)NS(C)(=O)=O)cc3C3CC3)C2)cc1C` [Example 439, (R)-5-cyclopropyl-4-((1-(3,4-dimethylbenzyl)piperidin-3-yl)oxy)-2-fluoro-N-(methylsulfonyl)benzamide, trifluoracetic acid salt]: the IC50 was 11 nM.
For the molecule `N#Cc1cc(C(=O)NS(=O)(=O)C2CC2)c(F)cc1OCC1CCN(Cc2cc(Cl)cc(OC(F)(F)F)c2)CC1` [Example 409, 4-((1-(3-chloro-5-(trifluoromethoxy)benzyl)piperidin-4-yl)methoxy)-5-cyano-N-(cyclopropylsulfonyl)-2-fluorobenzamide, trifluoroacetic acid salt], the IC50 amounted to 54 nM.
Still for that read-out and setting: in the case of `CC1(COc2cc(F)c(C(=O)NS(=O)(=O)C3CC3)cc2C2CC2)CN(c2ccc(Cl)c(C(F)(F)F)n2)C1` [Example 485, 4-((1-(5-chloro-6-(trifluoromethyl)pyridin-2-yl)-3-methylazetidin-3-yl)methoxy)-5-cyclopropyl-N-(cyclopropylsulfonyl)-2-fluorobenzamide] it was 4.5 nM; in that of `CS(=O)(=O)NC(=O)c1cc(C2CC2)c(O[C@H]2CCCN(Cc3ccc(F)cc3Cl)C2)cc1F` [Example 573, (S)-4-((1-(2-chloro-4-fluorobenzyl)piperidin-3-yl)oxy)-5-cyclopropyl-2-fluoro-N-(methylsulfonyl)], 107 nM.
The same measure, in the same setting: in the case of `CS(=O)(=O)NC(=O)c1cc(C2CC2)c(OCC2CN([C@H](c3ccccc3)c3ccncc3)C2)cc1F` [Example 153, (R)-5-Cyclopropyl-2-fluoro-N-(methylsulfonyl)-4-((1-(phenyl(pyridin-4-yl)methyl)azetidin-3-yl)methoxy)benzamide] it was 439 nM.
With `O=C(NS(=O)(=O)C1CC1)c1cc(C2CC2)c(O[C@@H]2CCCN(c3ccc(F)cn3)C2)cc1F` [Example 494, (R)-5-cyclopropyl-N-(cyclopropylsulfonyl)-2-fluoro-4-((1-(5-fluoropyridin-2-yl)piperidin-3-yl)oxy)benzamide, trifluoroacetic acid salt], the IC50 was found to be 52.7 nM.
On the same count and under the same terms, in the case of `CS(=O)(=O)NC(=O)c1cc(C2CC2)c(OCC2CC3CCC(C2)N3Cc2cc(Cl)cc(Cl)c2)cc1F` [Example 449, 5-cyclopropyl-4-(((1R,3R,5S)-8-(3,5-dichlorobenzyl)-8-azabicyclo[3.2.1]octan-3-yl)methoxy)-2-fluoro-N-(methylsulfonyl)benzamide] it was 17.1 nM.
For the molecule `O=C(NS(=O)(=O)N1CCC1)c1cc(C2CC2)c(CN2CCO[C@H](Cc3cc(Cl)cc(Cl)c3)C2)cc1F` [Example 465, (R)—N-(azetidin-1-ylsulfonyl)-5-cyclopropyl-4-((2-(3,5-dichlorobenzyl)morpholino)methyl)-2-fluorobenzamide, trifluoroacetic acid salt], the IC50 is 12.8 nM.
Still for that read-out and setting: in the case of `CS(=O)(=O)NC(=O)c1cc(C2CC2)c(OCC2CCN(S(=O)(=O)c3ccc(C(F)(F)F)cc3Cl)CC2)cc1F` [Example 384, 4-((1-((2-chloro-4-(trifluoromethyl)phenyl)sulfonyl)piperidin-4-yl)methoxy)-5-cyclopropyl-2-fluoro-N-(methylsulfonyl)benzamide] it was 16.3 nM.
On the same count and under the same terms, in the case of `COCC(c1cc(Cl)cc(Cl)c1)N1CCC(COc2cc(F)c(C(=O)NS(C)(=O)=O)cc2C2CC2)CC1` (stereo not drawn) [Example 90, 5-Cyclopropyl-4-((1-(1-(3,5-dichlorophenyl)-2-methoxyethyl)piperidin-4-yl)methoxy)-2-fluoro-N-(methylsulfonyl)benzamide] it was 2.87 nM; in that of `C[C@H](c1ccc(F)cc1Cl)N1CCC(COc2cc(F)c(C(=O)NS(C)(=O)=O)cc2C2CC2)CC1` [Example 244], 12 nM.
On the same count and under the same terms, in the case of `CCS(=O)(=O)NC(=O)c1cc(C2CC2)c(OC[C@@H]2CC[C@@H](C)N([C@H](C)c3cc(Cl)cc(Cl)c3)C2)cc1F` [Example 345, 5-cyclopropyl-4-(((3R,6R)-1-((R)-1-(3,5-dichlorophenyl)ethyl)-6-methylpiperidin-3-yl)methoxy)-N-(ethylsulfonyl-2-fluorobenzamide, trifluoroacetic acid salt] it was 7.8 nM; in that of `CS(=O)(=O)NC(=O)c1cc(C2CC2)c(OCC2CCN(Cc3cnc(OCC(F)(F)F)c(Cl)c3)CC2)cc1F` [Example 190, 4-((1-((5-Chloro-6-(2,2,2-trifluoroethoxy)pyridin-3-yl)methyl)piperidin-4-yl)methoxy)-5-cyclopropyl-2-fluoro-N-(methylsulfonyl)benzamide], 56 nM; in that of `CS(=O)(=O)NC(=O)c1cc(C2CC2)c(OCC2CCN(c3cc(C(F)(F)F)c(Cl)cn3)CC2)cc1F` [Example 554, 4-((1-(5-chloro-4-(trifluoromethyl)pyridin-2-yl)piperidin-4-yl)methoxy)-5-cyclopropyl-2-fluoro-N-(methylsulfonyl)benzamide], 3.2 nM.
As to `CC(c1ccc(OC(F)(F)F)cc1)N1CCC(COc2cc(F)c(C(=O)NS(C)(=O)=O)cc2C2CC2)CC1` (stereo not drawn) [Example 156], the IC50 is 21 nM.

The assay is the same for the next values; noted with them: read-out: Ligand Binding Assay; 100 pM [3H]compound, membranes with hNav1.7 and β1 subunit, 18 h, room temperature; trifluoroacetic acid salt.
For the molecule `CS(=O)(=O)NC(=O)c1cc(C2CC2)c(CN2[C@@H]3CC[C@H]2C[C@@H](Oc2ncc(C(F)(F)F)cc2Cl)C3)cc1F` [Example 553, 4-(((1R,3r,5S)-3-((3-chloro-5-(trifluoromethyl)pyridin-2-yl)oxy)-8-azabicyclo[3.2.1]octan-8-yl)methyl)-5-cyclopropyl-2-fluoro-N-(methylsulfonyl)benzamide, trifluoroacetic acid salt], the IC50 stood at 6.1 nM.
